Data from patent US11767278B2, “Plant extract compositions for forming protective coatings” (Apeel Technology, Inc., priority 2015, dated 2023).

Tested on: avocados
Experiment: Mass loss rates of avocados coated with compounds extracted by thermal depolymerization of cutin
Design: species or system avocado
Conditions: unpeeled avocados dipped in 10 mg/mL solution in ethanol, humidity about 40%-55%
Method: Protective coatings were formed over avocados by extracting compounds by method described herein (thermal depolymerization of cutin) and depositing the compounds over the outer surface of the (unpeeled) avocados. The mass loss rates of the avocados were then measured and compared to those of uncoated avocados. All coatings were formed by dipping the avocados in a solution comprising the associated compounds dissolved in substantially pure ethanol at a concentration of 10 mg/mL, placing the avocados on drying racks, and allowing the avocados to dry under ambient room conditions at a temperature in the range of about 23° C.-27° C. and humidity in the range of about 40%-55%. The avocados were held at these same temperature and humidity conditions for the entire duration of the time they were tested.
Mass loss rates are shown in FIG. 16 for untreated (e.g., uncoated) avocados in bar 1602, for avocados coated with ethyl 10,16-dihydroxyhexadecanoate (referred to as “EtDHPA”) in bar 1604, and for avocados coated with a mixture of EtDHPA and 1,3-dihydroxypropan-2-yl hexadecanoate (referred to as “PA-2G”) in bar 1606, where for bar 1606 the EtDHPA and PA-2G were mixed at a mass ratio of 30:70. […]

CCOC(=O)CCCCCCCCC(O)CCCCCCO (centres unmarked) [EtDHPA, ethyl 10,16-dihydroxyhexadecanoate]
average rate of mass decrease of coated avocados (mass loss rate) (dried, held at about 23-27 °C, group of 30 avocados, FIG. 16): about 1.06 % per day | reduction of average mass loss rate as compared to the uncoated avocados (about 23-27 °C, uncoated avocados about 1.21% per day): more than 12%
